Measurements: patent US20250281478A1, “METHODS FOR PREVENTING OR TREATING KIDNEY DISEASES” (JEAMOON BEIJING CO., LTD., priority 2022, published 2025)

Tests used:
Type in all cases: in vivo, C57BL/6N mice
[1] = system: mice with adenine-induced renal failure; test: Blood urea nitrogen (BUN) in adenine-induced renal failure mice
Method: (§1) • a) Control group: Fed with adenine-free feed; other procedures were the same as those in the model group. • b) Model group: Fed with feed containing 0.25% adenine for modelling. • c) LY-10 mg/kg group: Model+LY2922470 (10 mg/kg, p.o., QD). • d) LY-30 mg/kg group: Model+LY2922470 (30 mg/kg, p.o., QD). • e) LY-60 mg/kg group: Model+LY2922470 (60 mg/kg, p.o., QD). • f) TAK875 group: Model+TAK875 (30 mg/kg, p.o., QD).
(§2) Except for the control group, all other mice were fed with a diet containing 0.25% adenine for modelling. The control group was fed with a normal diet. All mice were allowed free access to food. One week after modeling, each group of mice was administered the respective treatment via oral gavage once daily in the afternoon for two consecutive weeks. The control group and the model group received vehicle under a same condition. The adenine-containing diet was continuously administered for modeling throughout the treatment period until the end of the experiment. The physical condition of the mice was monitored, and body weight was measured and recorded weekly. Blood samples were collected from the orbital venous plexus at 1 week (post-modeling) and 3 weeks (after 2 weeks of treatment). Serum was separated for the measurement of serum creatinine (CRE) and blood urea nitrogen (BUN). At the end of the two-week treatment, renal function of each group was assessed using a TGFR renal function monitoring and smart analysis system. After testing, tissues were collected from the mice to confirm the efficacy of the treatment.
(§3) Statistical analyses were performed using GraphPad Prism 8.0 software. Continuous data of each group were expressed as mean+SD. One-way ANOVA was used for multi-group comparisons, and Student's t-test was used for comparisons between two groups. A p-value<0.05 was considered statistically significant. For categorical data, chi-square tests were used to compare between groups, with p<0.05 indicating a statistically significant difference.
(§4) Mice were fed a 0.25% adenine-containing diet. After one week, the mice were treated with LY2922470 or TAK875. During the treatment period, the adenine-containing diet was continued for modeling. After three weeks of adenine feeding (i.e., two weeks of drug administration), blood samples were collected from the mice, and serum was isolated for CREA and BUN measurements.

[2] = system: mice with adenine-induced renal failure; test: Serum creatinine (CREA) in adenine-induced renal failure mice
Method: as §1, §2, §3, §4

[3] = system: mice with adenine-induced renal failure; test: Renal fibrosis by Masson's trichrome staining in adenine-induced renal failure mice; conditions: TAK875 30 mg/kg p.o. QD for 2 weeks; 3 weeks of modeling; FIG. 6
Method: Mice were modeled and administered drugs as described in Example 3. After two weeks of drug administration, the mice were euthanized, and their kidneys were fixed, sectioned, stained with Masson's trichrome, and analyzed.
Whole-slide scanning was performed using a fully automated digital pathology scanner KF-PRO-120 from Ningbo Jiangfeng Bioinformatics Technology Co., Ltd. Masson-stained images were analyzed using the Area Quantification module in HALO software. The blue staining of collagen fibers was used as the unified criterion for positivity. The images were analyzed, and the percentage of blue-stained collagen fibers in the tissue was calculated.
Statistical analysis was conducted using GraphPad Prism 8.0. Continuous data for each group were expressed as mean+SD. One-way ANOVA was used for multi-group comparisons, and Student's t-test was used for comparisons between two groups. A p-value<0.05 was considered statistically significant. For categorical data, chi-square tests were used for comparisons among groups, and a p-value<0.05 was considered statistically significant.

[4] = system: mice with sustained adenine-induced renal failure; test: Glomerular filtration rate in mice with sustained adenine-induced renal failure (TGFR system); conditions: TAK875 30 mg/kg p.o. QD for 2 weeks; 3 weeks continuous 0.25% adenine diet; FIG. 4
Method: as §1, §2, §3
One week later, LY2922470 or TAK875 was administrated for treatment. […]

[5] = system: mice with adenine-induced renal failure; test: Survival of mice with adenine-induced renal failure; conditions: TAK875 30 mg/kg p.o. QD
Method: • 1. Experimental Animals: C57BL/6N, 8 weeks old, SPF grade, male. • 2. Experimental Drugs: • LY2922470 (Shanghai Taoshu Biotechnology Co., Ltd.) • TAK875 (Shanghai Taoshu Biotechnology Co., Ltd.)
1) Preparation of TAK875: A total of 27 mg of TAK875 powder was accurately weighed using an analytical balance and dissolved in 9 mL of 0.8% CMC-Na solution. The mixture was sonicated for 5 minutes to form a 3 mg/mL white suspension. The suspension was stored at 4° C. for later use.
2) Preparation of LY2922470: A total of 80 mg of LY2922470 yellow crystals was added to 200 μL of DMSO to form a clear yellow solution. The solution was gradually added in batches to 10 mL of 0.8% CMC-Na solution. After heating and sonication for 5 hours, an 8 mg/mL white suspension of LY2922470 was obtained. The suspension was stored at 4° C. for later use.
Eight-week-old male C57BL/6N mice were acclimatized for one week and then randomly divided into six groups. Except for the control group, all mice were fed a 0.25% adenine-containing diet for modelling. The control group received a normal diet. The mice had free access to food. One week after model induction, mice in each group were orally administered the corresponding drug once daily in the afternoon, according to their group assignment. The control group and the model group received vehicle under a same condition. During the treatment period, the adenine-containing diet was continued. Mouse survival was monitored until the end of the experiment.

[6] = TAK875 30 mg/kg p.o. QD for 2 weeks
[7] = TAK875 30 mg/kg p.o. QD, mean ± SD

Q: How did the “BUN level compared with the model group” value [1, 6] turn out when `Cc1cc(OCCCS(C)(=O)=O)cc(C)c1-c1cccc(COc2ccc3c(c2)OC[C@H]3CC(=O)O)c1` [TAK875] was run?
A: Its value is “did not significantly reduce”.

Q: And the “BUN after modeling for 3 weeks (after drug administration for 2 weeks)” value [1, 7]?
A: The value was 25.07 ± 4.91 mmol/L.

Q: What about the “BUN after modeling for 1 week (before drug administration)” value ([1]; baseline of the TAK875 30 mg/kg group, mean ± SD) of the same molecule?
A: Its value is 11.25 ± 3.98 mmol/L.

Q: And the “CREA level compared with the model group” value [2, 6]?
A: The value was “did not significantly reduce”.

Q: What about the “CREA after modeling for 3 weeks (after drug administration for 2 weeks)” value [2, 7] of the same molecule?
A: Its value is 137.68 ± 30.23 µmol/L.

Q: What about the “Degree of renal fibrosis compared to the model group (Masson staining)” value [3] of the same molecule?
A: The value was “not significantly reduced”.

Q: What about the “GFR compared with the model group” value [4] of the same molecule?
A: The value was “increased”.

Q: And the “Survival Rate (%)” value ([5]; started 1 week after start of continued 0.25% adenine diet, end of experiment, 30 mg/kg)?
A: The value was 46.2%.

Q: And the “Count after Drug Administration (surviving mice)” value ([5]; 13 at enrollment)?
A: The value was 6.
